Reference: the supplement of paper PMC3493320

Tested on: NCI-H295R
Test: IC50 (antiproliferative, ATP content)
Conditions: 48 h
How it was run: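 Adrenocortical carcinoma cells (1500 per well) were seeded in serum-free ITS-supplemented DMEM in 1536-well plates and cultured overnight. Library compounds were then pin-transferred at 8 final concentrations from 0.6 nM to 46 µM, and plates were kept 48 h at 37 °C, 5% CO2. ATP was read as CellTiter-Glo luminescence after 20 min at room temperature and normalised to vehicle (0%) and positive control (100% inhibition). IC50 came from four-parameter logistic fits; compounds with no concentration response were recorded as above the top dose.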

| Structure (SMILES) | IC50 [µM] |
| --- | --- |
| CCN(CC)C(C)C(=O)c1ccccc1.Cl (centres undefined) | > 46 |
| CC(=O)Nc1c(I)c(C(=O)N[C@H]2C(O)O[C@H](CO)[C@@H](O)[C@@H]2O)c(I)c(N(C)C(C)=O)c1I (some centres undefined) | > 46 |
| O=C(O)c1cccnc1Nc1cccc(C(F)(F)F)c1 | > 46 |
| O=c1[nH]cc(F)c(=O)[nH]1 | > 46 |
| O=[N+]([O-])c1cccc(S(=O)(=O)NCCNS(=O)(=O)c2cccc([N+](=O)[O-])c2)c1 | > 46 |
| COC(=O)[C@@H](N)CS.Cl | > 46 |
| COc1cc(NS(=O)(=O)c2ccc(N)cc2)nc(OC)n1 | > 46 |
| CC(CCc1ccccc1)NC(C)C(O)c1ccc(O)cc1 (centres undefined) | > 46 |
| O[C@H]1[C@H](O)[C@@H](O)[C@H](O)[C@@H](O)[C@H]1O | > 46 |
| C[N+]1(C)[C@@H]2CC[C@H]1C[C@H](OC(=O)c1c[nH]c3ccccc13)C2.[I-] | > 46 |
| [O-][N+](=Nc1ccccc1)c1ccccc1 | > 46 |
| N[C@H](C(=O)O)c1ccc(O)cc1 | > 46 |
| CN[C@@H]1[C@@H](O)[C@@H](O[C@@H]2[C@@H](O)[C@H](O[C@H]3O[C@H](CN)[C@@H](O)[C@H](O)[C@H]3O)[C@@H](N)C[C@H]2NC(=O)C(O)CN)OC[C@]1(C)O.O=S(=O)(O)O (some centres undefined) | > 46 |
| CCOc1ccc2c(c1)C(C)=CC(C)(C)N2 | > 46 |
| C#CCOC(C(=O)OCCN(C)C)(c1ccccc1)c1ccccc1.Cl | > 46 |
| O.O.O.O.O=C1[O][Mg]2([O]C(=O)c3ccccc3[O]2)[O]c2ccccc21 | > 46 |
| Cl.O=C1c2cccc3c2[C@H](CCC3)CN1[C@@H]1CN2CCC1CC2 | > 46 |
| O[C@H]1[C@@H]([C@]2=CC(O)=C(O)C=C2)OC3=C(C(O)=CC(O)=C3)C1 | > 46 |
| COc1ccc2nc(NC(=O)Nc3ccccc3)sc2c1 | > 46 |
| CC(=O)N=c1sc(S(N)(=O)=O)nn1C | > 46 |
| COc1cc(C)nc(-n2nc(C)cc2OC)n1 | > 46 |

Tested on: NCI-H295R
Test: maximal response (efficacy) relative to DMSO (0%) and doxorubicin (-100%); higher = less growth inhibition
Conditions: 48 h

| Structure (SMILES) | maximal response [%] |
| --- | --- |
| O=S(=O)([O-])c1ccc2c(/N=N/c3ccc(S(=O)(=O)[O-])c4ccccc34)c(O)c(S(=O)(=O)[O-])cc2c1.[Na+].[Na+].[Na+] | -50.2 |
| COc1cc(CNC(=O)CCCC/C=C/C(C)C)ccc1O | -21.6 |
| O=c1[nH]c2ccccc2n1CCCN1CCC(n2c(=O)[nH]c3cc(Cl)ccc32)CC1 | -25.4 |
| CC(=O)Oc1ccc2c(c1)CC[C@@H]1[C@@H]2CC[C@]2(C)[C@@H](O)CC[C@@H]12 | -30.8 |
| CCC/C=C/C=C/C(=O)O[C@H]1/C(=C/C(=O)OC)C[C@H]2C[C@H]([C@@H](C)O)OC(=O)C[C@H](O)C[C@@H]3C[C@H](OC(C)=O)C(C)(C)[C@](O)(C[C@@H]4C/C(=C/C(=O)OC)C[C@H](/C=C/C(C)(C)[C@]1(O)O2)O4)O3 | -41.4 |
| CCCc1nc2c(C)cc(-c3nc4ccccc4n3C)cc2n1Cc1ccc(-c2ccccc2C(=O)O)cc1 | -22.7 |
| COc1cccc(N(C)C(=S)Oc2ccc3c(c2)CCCC3)n1 | -47.1 |
| CN(Cc1ccc(C(C)(C)C)cc1)Cc1cccc2ccccc12 | -43.8 |
| COC(=O)C1=C(C#N)NC(C)=C(C(=O)OC(C)C)C1c1cccc([N+](=O)[O-])c1 (centres undefined) | -23.9 |
| COC1=CC(=O)C[C@@H](C)[C@]12Oc1c(Cl)c(OC)cc(OC)c1C2=O | -30.5 |
| CCC(O)c1ccccc1 (centres undefined) | -25.2 |
| CCc1cc(Cl)c(OC)c(C(=O)NC[C@@H]2CCCN2CC)c1O.Cl | -24.8 |
| CCc1oc2ccccc2c1C(=O)c1cc(Br)c(O)c(Br)c1 | -59.3 |
| CC1=CC(=O)[N-]S(=O)(=O)O1.[K+] | -79.3 |
| Cl.O=C(C[C@@H]1NCCC[C@H]1O)Cn1cnc2cc(Br)c(Cl)cc2c1=O | -28.3 |
| C/C(=C\c1csc(C)n1)[C@@H]1C[C@@H]2O[C@]2(C)CCC[C@H](C)[C@H](O)[C@@H](C)C(=O)C(C)(C)[C@@H](O)CC(=O)O1 | -57.6 |
| COc1cc2c(c(OC)c1OC)-c1ccc(OC)c(=O)cc1[C@@H](NC(C)=O)CC2 | -49.9 |
| COC(=O)c1ccccc1C(=O)c1ccc(OCCN2CCCCC2)cc1.Cl | -26.8 |
| CC(CN(C)C)CN1c2ccccc2Sc2ccc(C(F)(F)F)cc21.O=C(O)C=CC(=O)O (centres undefined) | -30.2 |
| O[C@@]3(C#C)CC[C@H]2[C@@H]4CC/C1=C/c5oncc5C[C@]1(C)[C@H]4CC[C@@]23C | -27.4 |

| Structure (SMILES) | maximal response [%] |
| --- | --- |
| CC(C)[C@H](N)C(=O)OCC(CO)OCn1cnc2c(=O)nc(N)[nH]c21.Cl (some centres undefined) | -28.1 |
| CCCCOc1ccc(CC(=O)NO)cc1 | -24 |
| COCc1c(C(C)C)nc(C(C)C)c(/C=C/[C@@H](O)C[C@@H](O)CC(=O)[O-])c1-c1ccc(F)cc1.[Na+] | -23.2 |
| O=C(O)Cc1cc(I)c(Oc2ccc(O)c(I)c2)c(I)c1 | -31.4 |
| N\1(C(N(C(CC)C)/N=C/1)=O)c7ccc(N2CCN(CC2)c6ccc(OC[C@@H]5O[C@](c3c(cc(cc3)Cl)Cl)(Cn4ncnc4)OC5)cc6)cc7 (some centres undefined) | -23.1 |
| Oc1ccc(O)cc1 | -31.2 |
| O=C(CCCCCCC(=O)Nc1ccccc1)NO | -37.1 |
| O=C1C(C(O)=C4C([C@@H](O[C@@H]5O[C@@H](C)[C@@H](O[C@@H]6CCCCO6)[C@@H](N)C5)C[C@@]([C@](CO)=O)(O)C4)=C3O)=C3C(C2=C1C=CC=C2OC)=O | -43 |
| CCCCc1ccc2[nH]c(NC(=O)OC)nc2c1 | -49.6 |
| Nc1ncnc2[nH]cnc12 | 30.9 |
| O=C(Nc1ccc(Cl)cc1)Nc1ccc(Cl)c(Cl)c1 | -41.7 |
| CCc1cccc(N(C)C(=N)Nc2cccc3ccccc23)c1.Cl | -29.2 |
| C[C@]12C/C(=C/O)C(=O)C[C@@H]1CC[C@@H]1[C@@H]2CC[C@@]2(C)[C@H]1CC[C@]2(C)O | -34.1 |
| C[C@]12CCC(=O)C=C1[C@@H]1C[C@@H]1[C@H]1[C@@H]3[C@@H]4C[C@@H]4[C@@]4(CCC(=O)O4)[C@@]3(C)CC[C@@H]12 | -33.2 |
| O=C3C1=C(NC(N)=N3)NC=C1CCC2=CC=C(C(N[C@H]([C@@]([O-])=O)CCC([O-])=O)=O)C=C2.[Na+].[Na+] | -56.4 |
| CC[C@@]1([C@@H]2O[C@@H]([C@H]3O[C@@](O)(CO)[C@H](C)C[C@@H]3C)C[C@@H]2C)CC[C@H]([C@]2(C)CC[C@]3(C[C@H](O)[C@@H](C)[C@@H]([C@@H](C)[C@@H](OC)C(C)C(=O)[O-])O3)O2)O1.[Na+] (some centres undefined) | -50.4 |
| O=C(Nc1ncc([N+](=O)[O-])s1)c1cccs1 | -58.5 |
| CCCOc1ccc2nc(NC(=O)OC)sc2c1 | -48.5 |
| Nc1ncnc2c1ncn2[C@@H]1O[C@H](COP(=O)(O)O)[C@@H](O)[C@@H]1O | 22 |
| N[C@@H](Cc1cc(I)c(Oc2cc(I)c(O)c(I)c2)c(I)c1)C(=O)O | -25.6 |

| Structure (SMILES) | maximal response [%] |
| --- | --- |
| F\C1=C\N(C(=O)NC1=O)[C@H]2C[C@H](O)[C@@H](CO)O2 | -37.6 |
| O=C2N(CCC8)[C@]8([H])[C@@](O[C@](C)1N[C@]([C@@H]6C=C([C@]7([H])N(C)C6)C5=C4C(C7)=CNC4=CC=C5)=O)(O)N([C@H]2CC3=CC=CC=C3)C1=O.O=C%10N(CCC%16)[C@]%16([H])[C@@](O[C@](C)9N[C@]([C@@H]%14C=C([C@]%15([H])N(C)C%14)C%13=C%12C(C%15)=CNC%12=CC=C%13)=O)(O)N([C@H]%10CC%11=CC=CC=C%11)C9=O.O[C@@H](C(O)=O)[C@@H](O)C([O-])=O | -31.1 |
| O[C@@H]1C4=C(C)[C@@H](OC([C@H](O)[C@H]([C@@]6=CC=CC=C6)NC(OC(C)(C)C)=O)=O)C[C@@](C(C)4C)(O)[C@@H](OC(C5=CC=CC=C5)=O)[C@@]([C@]2(OC(C)=O)CO[C@@H]2C[C@@H]3O)([H])[C@]3(C)C1=O | -59.5 |
| CCCSc1ccc2[nH]c(NC(=O)OC)nc2c1 | -55.1 |
| O=C(N[C@@H](c1ccccc1)[C@@H](O)C(=O)O[C@H]3C[C@@]4(O)[C@@H](OC(=O)c2ccccc2)[C@@H]5[C@]6(OC(C)=O)CO[C@@H]6C[C@H](O)[C@@]5(C)C(=O)[C@H](OC(C)=O)\C(=C3/C)C4(C)C)c7ccccc7 | -55.9 |
| OC[C@H]1O[C@@H](n2cnc3c(O)ncnc32)[C@H](O)[C@@H]1O | 26.5 |
| COc1c(C)c2c(c(O)c1CC=C(C)CCC(=O)OCCN1CCOCC1)C(=O)OC2 | -54.6 |
| O=[C@@](OC)[C@](C(N3)=C4C2=C3C=CC=C2)([C@@]5=CC([C@]69[C@]8([H])[C@](C=CCN8CC9)(CC)[C@@H](OC(C)=O)[C@](O)([C@](OC)=O)[C@@]([H])6N7C=O)=C7C=C5OC)C[C@H]1C[C@](CC)(O)CN(CC4)C1 | -44.6 |
| Nc1ccc(O)c(C(=O)O)c1 | -20.8 |
| COCCOC(=O)C1=C(C)NC(C)=C(C(=O)OC/C=C/c2ccccc2)C1c1cccc([N+](=O)[O-])c1 (centres undefined) | -49.9 |
| CN(CC=CC#CC(C)(C)C)Cc1cccc2ccccc12 | -34.4 |
| O=C(NC(=O)c1c(F)cccc1F)Nc1ccc(Cl)c(Oc2ncc(C(F)(F)F)cc2Cl)c1 | -39.7 |
| S=C1SCN(Cc2ccccc2)CN1Cc1ccccc1 | -29.7 |
| COc1cc(C(=O)OCCCN2CCCN(CCCOC(=O)c3cc(OC)c(OC)c(OC)c3)CC2)cc(OC)c1OC | -31.2 |
| CC[C@@]1(O)C(=O)OCc2c1cc1n(c2=O)Cc2cc3c(CN(C)C)c(O)ccc3nc2-1.Cl | -36.8 |
| COC(=O)Nc1nc2cc(C(=O)c3ccccc3)ccc2[nH]1 | -50.2 |
| COc1cc(C)c(Cc2cnc(N)nc2N)cc1OC | -57.4 |
| COC(=O)C1=C(C)NC(C)=C(C(=O)OCC(C)C)C1c1ccccc1[N+](=O)[O-] (centres undefined) | -32.8 |
